In patent US11530514B2, “Method for manufacturing a fibrous web” (Kemira Oyj, priority 2017, dated 2022):
Where a name gives a salt, the structure may show the parent alone.

Experiments:
Format in all cases: cell-based
aerobic spores [1] = experiment: Example 3: aerobic spore count in spiked paper machine process water, biocidal pre-treatment
Experimental: (§1) Objective of this laboratory test was to study effect of biocidal pre-treatment on bacterial killing and spore sensitisation efficacy of a germinant surfactant comprising 35 weight-% of dodecylguanidine hydrochloride (DGH) and dipropyleneglycol as solvent in paper machine process water.
Authentic circulation water (1 litre) was collected from a paper machine producing food packaging board and divided into 4 samples with volume of 50 ml. To obtain equal bacterial spore content in the samples at start of the experiment, each sample was spiked with additional bacterial spores. The target level for spores was c.a. 10 000 CFU/ml. The spore solution for spiking was prepared as follows: authentic spore-forming bacteria that were isolated from a paper making process were pre-grown for 2 days at +37° C. in modified nutrient broth, after which the mature spores were harvested, and washed by using centrifugation and cold water. Out of the 4 samples, • the first sample was left without any chemical addition as a reference sample. • the second sample was treated with sodium hypochlorite, at dosage of 5 mg/I, given as active chlorine; • the third sample was treated with a germinant surfactant comprising dodecylguanidine hydrochloride (DGH), at dosage level of 100 mg/I, given as active compound; and • the fourth sample was treated with sodium hypochlorite, at dosage of 5 mg/I, given as active chlorine) for 1 minute, after which the […] sample was treated with a germinant surfactant comprising dodecylguanidine hydrochloride (DGH), at dosage level of 100 mg/I, given as active compound;
(§2) Samples were stored at 45° C., under mixing of 180 rpm, for 30 minutes except samples 2 and 4, which were in addition pre-treated with sodium hypochlorite for 1 minute. After the treatment the amount of total aerobic bacteria (non-pasteurized samples) and aerobic spores were quantified (plate count agar, +32° C., 2 days incubation). Prior to the aerobic spore determination, samples were pasteurized at +82° C. for 10 min.

aerobic spores [2] = experiment: Example 2: aerobic spore count in stagnant 2 d old broke diluted with circulation water
Experimental: (§3) Authentic broke and circulation water samples were collected from an alkaline paper mill producing food packaging board. 1 litre of broke was stored for 2 days, +45° C., with closed cap, without mixing, in order to induce anaerobism and thus bacterial sporulation. This stagnant sample was divided to four 100 ml samples, out of which two replicate samples were treated with a germinant surfactant comprising 35 weight-% dodecylguanidine hydrochloride (DGH) and dipropyleneglycol as solvent. The dosage was 70 mg/L as active DGH. Two replicates were left without any chemical additions as reference samples.
(§4) After chemical contact time of 5 min, all samples were diluted three times with the circulation water and incubated for 30 minutes, at +45° C., mixing of 160 rpm. Total aerobes (PCA, +37° C.) and aerobic spores (PCA, +37° C.) were measured at start from reference samples and after the total contact time of 35 min from all samples.

total aerobic bacteria [3] = experiment: Example 3: total aerobic bacteria count in paper machine process water, biocidal pre-treatment; conditions: sodium hypochlorite 5 ppm as active chlorine (1 min pre-treatment) and/or DGH 100 ppm as active, untreated 7 000 000
Experimental: as §1
Authentic circulation water (1 litre) was collected from a paper machine producing food packaging board and divided into 4 samples with volume of 50 ml. To obtain equal bacterial spore content in the samples at start of the experiment, each sample was spiked with additional bacterial spores. The target level for spores was c.a. 10 000 CFU/ml. The spore solution for spiking was prepared as follows: authentic spore-forming bacteria that were isolated from a paper making process were pre-grown for 2 days at +37° C. in modified nutrient broth, after which the mature spores were harvested, and washed by using centrifugation and cold water. […]
as §2, with “Prior to the aerobic spore determination, samples were pasteurized at +82° C. for 10 min.” left out

aerobic spores [4] = experiment: Example 1: aerobic spore count in spiked paper machine water/broke at variable pulp consistency; conditions: for Spore reduction (%): DGH 100 mg/L as active vs no addition; for Aerobic spores, cfu/ml (+82° C., 10 min, +32° C., 2 d PCA): DGH 100 mg/L as active, 30 min, 45° C.
Source text: (§5) Objective of this laboratory test was to study bacterial killing and spore sensitisation effect of a germinant surfactant composition comprising 35 weight-% of dodecylguanidine hydrochloride (DGH) and dipropyleneglycol as solvent in paper machine process water, at variable pulp consistency.
(§6) Authentic circulation water, with low fibre content, and authentic broke, with high fibre content, were collected from a paper machine, which produced food packaging board. Circulation water and broke samples were mixed together to obtain 6 samples in total, at 3 different pulp consistency levels.
(§7) To obtain equal bacterial spore content in the samples at the start of the experiment, each sample was spiked with additional bacterial spores. Target spore level in the sample was set to ca. 10 000 CFU/ml. The spore solution for spiking was prepared as follows: authentic spore-forming bacteria that were isolated from a paper making process were pre-grown for 2 days at +37° C. in a modified nutrient broth, after which the mature spores were harvested, and washed by using centrifugation and cold water.
(§8) Out of the 6 samples, 3 test samples were treated with germinant surfactant comprising dodecylguanidine hydrochloride (DGH) and 3 samples were left without any chemical addition as reference samples. After addition of germinant surfactant, the test samples as well as the reference samples (no addition) were stored at 45° C., mixing of 180 rpm, for 30 minutes, followed by quantification of total aerobic bacteria (non-pasteurized samples) and aerobic spores (plate count agar, +32° C., 2 days incubation). Prior to the aerobic spore determination, samples were pasteurized at +82° C. for 10 min. Weight of suspended solids per litre of liquid, i.e. pulp consistency, was determined at the end of the test (dry weight of sample per total weight of sample).

total aerobic bacteria [5] = experiment: Example 2: total aerobes count in stagnant 2 d old broke diluted with circulation water; conditions: DGH 70 mg/l active 5 min, total contact time 35 min, +45° C., untreated 9×10^6 CFU/ml
Experimental: as §3, §4

total aerobic bacteria [6] = experiment: Example 1: total aerobic bacteria count in paper machine water/broke at variable pulp consistency; conditions: for Bacterial killing efficacy (%): DGH 100 mg/L as active vs no addition; for Total aerobic bacteria (+32° C., 2 d PCA): DGH 100 mg/L as active, 30 min, 45° C.
Source text: as §5, §6, §7, §8

Row | Structure (SMILES) | Aerobic spores PCA +32 30 min @45° C. (aerobic spores [1]; pasteurized +82° C. 10 min, sodium hypochlorite 5 ppm as active chlorine and/or DGH 100 ppm as active, untreated 13 000) | effect on bacterial spores (aerobic spores [1]; sodium hypochlorite 5 mg/l as active chlorine) | spore reduction (aerobic spores [1]; DGH 100 mg/l active, with or without sodium hypochlorite 5 mg/l pre-treatment, vs untreated) [%] | level of aerobic spores (aerobic spores [2]; stagnant 2 d old broke, DGH 70 mg/l active 5 min, diluted, total contact time 35 min, +45° C., untreated 330 CFU/ml) [CFU/ml] | spore reduction (aerobic spores [2]; stagnant diluted broke, DGH 70 mg/l active) [%] | Total aerobic bacteria PCA +32, 30 min @45° C. (total aerobic bacteria [3]) | spore reduction (aerobic spores [4]; process streams with different pulp consistencies (summary of Example 1)) [%] | Spore reduction (%) (aerobic spores [4]; pulp consistency 0.1 w/w-%) | Aerobic spores, cfu/ml (+82° C., 10 min, +32° C., 2 d PCA) (aerobic spores [4]; pulp consistency 0.1 w/w-%) [cfu/ml] | Spore reduction (%) (aerobic spores [4]; pulp consistency 3 w/w-%) | Aerobic spores, cfu/ml (+82° C., 10 min, +32° C., 2 d PCA) (aerobic spores [4]; pulp consistency 3 w/w-%) [cfu/ml] | Spore reduction (%) (aerobic spores [4]; pulp consistency 6 w/w-%) | Aerobic spores, cfu/ml (+82° C., 10 min, +32° C., 2 d PCA) (aerobic spores [4]; pulp consistency 6 w/w-%) | total aerobic bacteria level (total aerobic bacteria [5]) | Bacterial killing efficacy (%) (total aerobic bacteria [6]; pulp consistency 0.1 w/w-%) | Total aerobic bacteria (+32° C., 2 d PCA) (total aerobic bacteria [6]; pulp consistency 0.1 w/w-%) | Bacterial killing efficacy (%) (total aerobic bacteria [6]; pulp consistency 3 w/w-%) | Total aerobic bacteria (+32° C., 2 d PCA) (total aerobic bacteria [6]; pulp consistency 3 w/w-%) | Bacterial killing efficacy (%) (total aerobic bacteria [6]; pulp consistency 6 w/w-%) | Total aerobic bacteria (+32° C., 2 d PCA) (total aerobic bacteria [6]; pulp consistency 6 w/w-%)
1 | OCl [sodium hypochlorite] | 17 000 CFU/ml | did not have any effect on bacterial spores |  |  |  |  |  |  |  |  |  |  |  |  |  |  |  |  |  | 
2 | CCCCCCCCCCCCNC(=N)N [DGH, dodecylguanidine hydrochloride] |  |  | > 70 | 120 | > 60 | 10 000 CFU/ml | > 45 | 98 | 400 | 87 | 700 | 45 | 2 800 cfu/ml | 2×10^6 CFU/ml | 100 | 300 | 78 | 9 000 | 55 | 77 000
